Several values for one entry are separate records, joined by “and”; a condition that tells them apart may be missing. Equal values may be shown once. Toxic doses and inconclusive results are not listed.
System: P388 leukemia ip, CD2F1 mice, survival T/C
Assay: NCI In Vivo Anticancer Drug Screen. Data for tumor model P388 Leukemia (intraperitoneal) in CD2F1 (CDF1) mice
Settings: endpoint: median survival time, higher = longer survival
Method in brief: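 Mice carrying the transplanted tumor received test compound or vehicle. Survival was recorded in each group, and the value is the treated-group measurement divided by that of the vehicle-treated control group.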

Question: For CC1COC2(CCC(=CBr)CC2)O1 (centres undefined), which T/C (dose: 100.0 mg/kg/injection, schedule: Q01DX001 (ip), vehicle: Klucel (hydroxypropylcellulose) (HPC)) is on record?
Answer: 96 % of control

Question: What about the T/C (dose: 200.0 mg/kg/injection, schedule: Q01DX001 (ip), vehicle: Klucel (hydroxypropylcellulose) (HPC)) of the same compound?
Answer: 107 % of control

Question: What about the T/C (dose: 400.0 mg/kg/injection, schedule: Q01DX001 (ip), vehicle: Klucel (hydroxypropylcellulose) (HPC)) of the same compound?
Answer: 100 % of control

Question: COC1/C=C\OC2(C)Oc3c(C)c(O)c4c(c3C2=O)C(=O)C=C(NC(=O)C(C)=C/C=C\C(C)C(=O)C(C)C2OC(C)(C)OC(C1C)C2C)C4=O (centres undefined) was tested. Which T/C (dose: 6.25 mg/kg/injection, schedule: Q04DX003 (ip), vehicle: other) did it give?
Answer: 100 % of control

Question: And the T/C (dose: 12.5 mg/kg/injection, schedule: Q04DX003 (ip), vehicle: distilled water + Tween-80)?
Answer: 106 % of control and 110 % of control

Question: And the T/C (dose: 12.5 mg/kg/injection, schedule: Q04DX003 (ip), vehicle: other)?
Answer: 107 % of control

Question: What about the T/C (dose: 25.0 mg/kg/injection, schedule: Q04DX003 (ip), vehicle: distilled water + Tween-80) of the same compound?
Answer: 101 % of control and 121 % of control

Question: And the T/C (dose: 25.0 mg/kg/injection, schedule: Q04DX003 (ip), vehicle: other)?
Answer: 156 % of control

Question: What about the T/C (dose: 50.0 mg/kg/injection, schedule: Q04DX003 (ip), vehicle: distilled water + Tween-80) of the same compound?
Answer: 91 % of control and 95 % of control

Question: And the T/C (dose: 50.0 mg/kg/injection, schedule: Q04DX003 (ip), vehicle: other)?
Answer: 108 % of control

Question: And the T/C (dose: 100.0 mg/kg/injection, schedule: Q04DX003 (ip), vehicle: distilled water + Tween-80)?
Answer: 103 % of control and 97 % of control

Question: And the T/C (dose: 100.0 mg/kg/injection, schedule: Q04DX003 (ip), vehicle: other)?
Answer: 118 % of control

Question: And the T/C (dose: 200.0 mg/kg/injection, schedule: Q04DX003 (ip), vehicle: distilled water + Tween-80)?
Answer: 113 % of control and 117 % of control

Question: Which results are given for O=C(CCN1C(=O)c2ccccc2C1=O)c1cnc(N2C(=O)c3ccccc3C2=O)[nH]1?
Answer: T/C (dose: 20.0 mg/kg/injection, schedule: Q01DX005 (ip), vehicle: Klucel (hydroxypropylcellulose) (HPC)): 98 % of control; T/C (dose: 40.0 mg/kg/injection, schedule: Q01DX005 (ip), vehicle: Klucel (hydroxypropylcellulose) (HPC)): 97 % of control; T/C (dose: 80.0 mg/kg/injection, schedule: Q01DX005 (ip), vehicle: Klucel (hydroxypropylcellulose) (HPC)): 91 % of control

Question: With CS(=O)(=O)OCCOS(C)(=O)=O as the compound, how does the T/C (dose: 50.0 mg/kg/injection, schedule: Q01DX009 (ip), vehicle: saline) read?
Answer: 111 % of control

Question: And the T/C (dose: 100.0 mg/kg/injection, schedule: Q01DX009 (ip), vehicle: Klucel (hydroxypropylcellulose) (HPC))?
Answer: 92 % of control

Question: And the T/C (dose: 100.0 mg/kg/injection, schedule: Q01DX009 (ip), vehicle: saline)?
Answer: 123 % of control

Question: And the T/C (dose: 400.0 mg/kg/injection, schedule: Q01DX009 (ip), vehicle: saline)?
Answer: 163 % of control

Question: With COc1cc2c(cc1O)-c1[nH]ncc1CCC2 as the compound, how does the T/C (dose: 100.0 mg/kg/injection, schedule: Q04DX003 (ip), vehicle: saline) read?
Answer: 101 % of control

Question: And the T/C (dose: 200.0 mg/kg/injection, schedule: Q04DX003 (ip), vehicle: saline)?
Answer: 97 % of control

Question: What about the T/C (dose: 400.0 mg/kg/injection, schedule: Q04DX003 (ip), vehicle: saline) of the same compound?
Answer: 102 % of control

Question: CC(=O)CSc1ncnc2nc[nH]c12 was tested. Which T/C (dose: 100.0 mg/kg/injection, schedule: Q04DX003 (ip), vehicle: saline with Tween-80) did it give?
Answer: 100 % of control

Question: And the T/C (dose: 200.0 mg/kg/injection, schedule: Q04DX003 (ip), vehicle: saline with Tween-80)?
Answer: 113 % of control

Question: And the T/C (dose: 400.0 mg/kg/injection, schedule: Q04DX003 (ip), vehicle: saline with Tween-80)?
Answer: 109 % of control

Question: Which results are given for Cc1cc(=O)[nH]c(NNC(=O)c2ccc(Cl)cc2)n1?
Answer: T/C (dose: 25.0 mg/kg/injection, schedule: Q01DX009 (ip), vehicle: distilled water + Tween-80): 93 % of control; T/C (dose: 50.0 mg/kg/injection, schedule: Q01DX009 (ip), vehicle: distilled water + Tween-80): 86 % of control; T/C (dose: 100.0 mg/kg/injection, schedule: Q01DX009 (ip), vehicle: distilled water + Tween-80): 93 % of control; T/C (dose: 200.0 mg/kg/injection, schedule: Q01DX009 (ip), vehicle: distilled water + Tween-80): 89 % of control; T/C (dose: 400.0 mg/kg/injection, schedule: Q01DX009 (ip), vehicle: distilled water + Tween-80): 101 % of control

Question: How did the T/C (dose: 50.0 mg/kg/injection, schedule: Q01DX005 (ip), vehicle: Klucel (hydroxypropylcellulose) (HPC)) turn out when Cc1ccc(S(=O)(=O)CCC(=O)c2ccc([N+](=O)[O-])cc2)cc1 was run?
Answer: 96 % of control

Question: What about the T/C (dose: 100.0 mg/kg/injection, schedule: Q01DX005 (ip), vehicle: Klucel (hydroxypropylcellulose) (HPC)) of the same compound?
Answer: 96 % of control

Question: And the T/C (dose: 200.0 mg/kg/injection, schedule: Q01DX005 (ip), vehicle: Klucel (hydroxypropylcellulose) (HPC))?
Answer: 96 % of control

Question: Which results are given for COc1ccc(NCCc2ccc(-n3ncc(C(=O)NN)c3N)nn2)cc1OC?
Answer: T/C (dose: 75.0 mg/kg/injection, schedule: Q01DX005 (ip), vehicle: other): 93 % of control; T/C (dose: 150.0 mg/kg/injection, schedule: Q01DX005 (ip), vehicle: other): 93 % of control; T/C (dose: 250.0 mg/kg/injection, schedule: Q01DX005 (oral), vehicle: water): 100 % of control; T/C (dose: 500.0 mg/kg/injection, schedule: Q01DX005 (oral), vehicle: water): 107 % of control; T/C (dose: 1000.0 mg/kg/injection, schedule: Q01DX005 (oral), vehicle: water): 110 % of control

Source: PubChem BioAssay AID330 (DTP/NCI, 2004)
